Results from patent US11425924B2, “Composition and method for controlled-release of amino acids” (Glanbia Nutritionals, Ltd., priority 2018, dated 2022).
Converted amounts (≈) assume the structure as drawn.

What was measured:
[1] = Zeta potential measurements; assay type: physicochemical; settings: uncoated
Experimental: Zeta potential analysis was performed in on a NanoBrook ZetaPlus Zeta Plus instrument from Brookhaven Instruments.

[2] = except at very acidic pH; cited from earlier work

- surface charge [1]: positive charge
Compound: CC(C)C[C@H](N)C(=O)O [Leucine (L-Leucine), L-Leucine]
- solubility in water [2]: 24.3 mg/mL (≈ 185 mM)
